tested on: SW620 cells (KRAS-G12V); assay: Cell proliferation / cytotoxicity assay (CellTiter-Glo 2.0); assay type: cell-based; conditions: Homo sapiens, SW-620, 72 h, SW620 cell line (KRAS-G12V), 72 hours incubation, luminescence (CellTiter-Glo 2.0); read-out: 5W620 IC50
Method: Compounds are assayed for inhibition of cell proliferation and killing cancer cells. Cytotoxicity assays are conducted according to the following general procedure. SW620 cells (ATCC CCL-227) are maintained in DMEM Low Glucose (Corning 10-014-CV) media supplemented with 10% fetal bovine serum and 1% PenStrep and grown at 37° C. in 5% CO2. Cells are plated into 96 well flat bottom plates (2 million/plate, ˜20,000/well, 200 μL media/well). The cells are allowed to settle and adhere to the plate bottom overnight. Compounds are diluted in media from a 10 mM stock solution starting at 50 μM, using 2-fold dilutions, in a column in a 96-well plate. Media is removed from the plate containing cells and replaced with media containing diluted compounds. Plates are incubated 72 hours at 37° C. in 5% CO2. Plates were allowed to come to room temperature and 100 μL CellTiter-Glo 2.0 reagent (Promega, G924C) is added at room temperature. Plates are shaken for 2 minutes, then allowed to stand for 15 minutes. Luminescence is read with FLx800 (BioTek Instruments). Data is plotted with GraphPad Prizm 8.0.
Dose response curves for the cytotoxicity of exemplary compounds against SW620 (KRAS-G12V) and MIA PaCa-2 (KRAS-G12C) cell lines are shown in FIG. 1A-1J.

SMILES	IC50
Cc1ccc2[nH]ncc2c1-c1ccc2nc(NC3CCN(Cc4ccc(Cl)cc4)CC3)nc(C)c2c1 [Compound 24]	< 5 µM
Cc1nc(NC2CCN(Cc3ccc(Cl)cc3)CC2)nc2ccc(-c3cccc4c3OCC(=O)N4)cc12 [Compound 70]	5 to 10 µM
Cc1nc(NC2CCN(C(=O)c3ccc(Cl)cc3)CC2)nc2ccc(-c3cccc4[nH]nc(C)c34)cc12 [Compound 18]	< 5 µM
Cc1nccc(-c2ccc3nc(NC4CCN(Cc5ccc(Cl)cc5)CC4)nc(C)c3c2)c1Cl [Compound 52]	< 5 µM
Cc1nc(NC(C)c2cccnc2)nc2ccc(-c3cccc4c3CCCC4)cc12 (centres unmarked) [Compound 34]	5 to 10 µM
Cc1nc(N[C@H]2CC[C@@H](N)CC2)nc2ccc(-c3cccc4c3OCC(=O)N4)cc12 [Compound 71]	5 to 10 µM
Cc1nc(NC2CCN(Cc3ccc(Cl)cc3)CC2)ncc1-c1cccc2c1CCCC2 [Compound 31]	< 5 µM
Cc1nc(NC2CCN(Cc3ccc(Cl)cc3)CC2)nc2ccc(-c3cccc4c3/C(=N/O)CCC4)cc12 [Compound 33]	< 5 µM
Cc1nc(NC2CCN(C(=O)c3ccccc3Cl)CC2)nc2ccc(-c3cccc4c3CCCC4)cc12 [Compound 36]	5 to 10 µM
Cc1nc(NC2CCN(Cc3ccc(Cl)cc3)CC2)nc2ccc(-c3cccc4c3C(=O)CCC4)cc12 [Compound 32]	< 5 µM
Cc1nc(NC2CCN(Cc3ccc(Cl)cc3)CC2)nc2ccc(-c3ccnc4[nH]ccc34)cc12 [Compound 42]	< 5 µM
Cc1nc(NC2CCN(C(=O)c3ccc(Cl)cc3)CC2)nc2ccc(-c3cccc4c3CCNC4)cc12 [Compound 7]	5 to 10 µM
COc1ccccc1C(=O)N1CCC(Nc2nc(C)c3cc(-c4cccc5c4OCCO5)ccc3n2)CC1 [Compound 17]	5 to 10 µM
Cc1nc(N[C@@H]2CCN(C(=O)c3ccc(Cl)cc3)[C@H](C)C2)nc2ccc(-c3cccc4c3OCCO4)cc12 [Compound 12]	5 to 10 µM
Cc1nc(N2CC[C@H](N3Cc4ccccc4CC3=O)C2)nc2ccc(-c3cccc4c3OCCO4)cc12 [Compound 10]	5 to 10 µM
COc1ccccc1C(=O)N1CCC(Nc2nc(C)c3cc(-c4cccc5c4OCCO5)ccc3n2)C[C@H]1C (some centres unmarked) [Compound 26]	5 to 10 µM
Cc1ccc2ccc(F)c(-c3ccc4nc(NC5CCN(C(=O)c6ccccc6Cl)CC5)nc(C)c4c3)c2n1 [Compound 61]	5 to 10 µM
COc1cccc(-c2ccc3nc(NC4CCN(Cc5ccc(Cl)cc5)CC4)nc(C)c3c2)n1 [Compound 48]	5 to 10 µM
Cc1nc(NC2CCN(Cc3ccc(Cl)cc3)CC2)nc2ccc(-c3cccc4c3CC(=O)CO4)cc12 [Compound 64]	< 5 µM
Cc1nc(NC2CCN(C(=O)c3ccc(Cl)cc3)CC2)nc2ccc(-c3cccc4c3OCCO4)cc12 [Compound 2, (4-chlorophenyl)(4-((6-(2,3-dihydrobenzo[b][1,4]dioxin-5-yl)-4-methylquinazolin-2-yl)amino)piperidin-1-yl)methanone]	5 to 10 µM
Cc1nc(N2CCC(N3Cc4ccccc4CC3=O)C2)nc2ccc(-c3cccc4c3OCCO4)cc12 (centres unmarked) [Compound 9]	5 to 10 µM

SMILES	IC50
Cc1ncccc1C(=O)N1CCC(Nc2nc(C)c3cc(-c4cccc5c4OCCO5)ccc3n2)CC1 [Compound 13]	< 5 µM
Cc1nc(NC2CCN(Cc3ccc(Cl)cc3)CC2)nc2ccc(-c3ccncc3C#N)cc12 [Compound 44]	5 to 10 µM
Cc1nc(NC2CCN(Cc3ccc(Cl)cc3)CC2)nc2ccc(-c3ccnc4ccc(Cl)cc34)cc12 [Compound 22]	5 to 10 µM
COc1c(Cl)cccc1-c1ccc2nc(NC3CCN(C(=O)c4ccccc4Cl)CC3)nc(C)c2c1 [Compound 43]	5 to 10 µM
Cc1nc(NC2CCN(Cc3ccc(Cl)cc3)CC2)nc2ccc(-c3cccnc3OC(C)C)cc12 [Compound 56]	< 5 µM
COc1cc(-c2ccc3nc(NC4CCN(Cc5ccc(Cl)cc5)CC4)nc(C)c3c2)c(Cl)cn1 [Compound 51]	< 5 µM
Cc1ccc2ccc(F)c(-c3ccc4nc(NC5CCN(Cc6ccc(F)cc6)CC5)nc(C)c4c3)c2n1 [Compound 19]	5 to 10 µM
Cc1nc(N[C@H]2CC[C@@H](NC3Cc4cccc(Cl)c4C3)CC2)nc2ccc(-c3cccc4c3OCCO4)cc12 (some centres unmarked) [Compound 68]	< 5 µM
COc1c(Cl)cccc1-c1ccc2nc(NC3CCN(Cc4ccc(Cl)cc4)CC3)nc(C)c2c1 [Compound 28]	< 5 µM
COc1cc(-c2ccc3nc(NC4CCN(Cc5ccc(Cl)cc5)CC4)nc(C)c3c2)ccn1 [Compound 50]	5 to 10 µM
Cc1ccc2ccc(F)c(-c3ccc4nc(NC5CCNCC5)nc(C)c4c3)c2n1 [Compound 60]	< 5 µM
Cc1ncccc1-c1ccc2nc(NC3CCN(Cc4ccc(Cl)cc4)CC3)nc(C)c2c1 [Compound 54]	< 5 µM
Cc1nc(NC2CCN(Cc3ccc(Cl)cc3)CC2)nc2ccc(-c3cccc4c3NC(=O)CO4)cc12 [Compound 62]	< 5 µM
Cc1nc(NC2CCN(C(=O)c3ccc(F)cc3)CC2)nc2ccc(-c3cccc4c3OCCO4)cc12 [Compound 14]	< 5 µM
Cc1nc(NC2CCN(Cc3ccc(Cl)cc3)CC2)nc2ccc(-c3cncc4ccccc34)cc12 [Compound 59]	5 to 10 µM
COc1cccc(-c2ccc3nc(NC4CCN(Cc5ccc(Cl)cc5)CC4)nc(C)c3c2)c1OC [Compound 39]	< 5 µM
Cc1nc(NC2CCN(Cc3ccc(Cl)cc3)CC2)nc2ccc(-c3ccncc3C(N)=O)cc12 [Compound 45]	< 5 µM
Cc1nc(NC2CCN(C(=O)c3cccc(Cl)c3)CC2)nc2ccc(-c3cccc4c3OCCO4)cc12 [Compound 15]	5 to 10 µM
Cc1cccc(-c2ccc3nc(NC4CCN(Cc5ccc(Cl)cc5)CC4)nc(C)c3c2)c1C [Compound 29]	< 5 µM
Cc1ncccc1-c1ccc2nc(NC3CCN(C(=O)c4ccc(Cl)cc4)CC3)nc(C)c2c1 [Compound 66]	5 to 10 µM
Cc1nc(NC2CCN(C(=O)c3ccc(Cl)cc3)[C@@H](C)C2)nc2ccc(-c3cccc4c3OCCO4)cc12 (some centres unmarked) [Compound 11]	5 to 10 µM

SMILES	IC50
Cc1nc(NC2CCN(Cc3ccc(Cl)cc3)CC2)nc2ccc(-c3cccnc3OCC(C)C)cc12 [Compound 57]	5 to 10 µM
Cc1nc(NC2CCN(Cc3ccc(Cl)cc3)CC2)nc2ccc(-c3cccc4c3CCCC4)cc12 [Compound 21]	< 5 µM
Cc1nc(NC2CCN(C(=O)c3ccccc3Cl)CC2)nc2ccc(-c3cccc4c3OCCO4)cc12 [Compound 16]	< 5 µM
Cc1nc(NC2CCN(Cc3ccc(Cl)cc3)CC2)nc2ccc(-c3cccc4c3OCCO4)cc12 [Compound 3, N-(1-(4-chlorobenzyl)piperidin-4-yl)-6-(2,3-dihydrobenzo[b][1,4]dioxin-5-yl)-4-methylquinazolin-2-amine]	< 5 µM
Cc1nccc(-c2ccc3nc(N[C@@H]4CC[C@H]5CC[C@@H](C4)N5Cc4ccc(Cl)cc4)nc(C)c3c2)c1Cl [Compound 74]	< 5 µM
Cc1nc(NC2CCN(Cc3ccc(Cl)cc3)CC2)nc2ccc(-c3cccc4c3OCC3(CC3)CO4)cc12 [Compound 41]	5 to 10 µM
Cc1nc(NC2CCN(Cc3ccc(Cl)cc3)CC2)nc2ccc(-c3ccnc(N4CCOCC4)c3F)cc12 [Compound 46]	5 to 10 µM
COc1nccc(-c2ccc3nc(NC4CCN(Cc5ccc(Cl)cc5)CC4)nc(C)c3c2)c1Cl [Compound 53]	< 5 µM
Cc1nc(N[C@@H]2CC[C@H]3CC[C@@H](C2)N3C(=O)c2ccc(Cl)cc2Cl)nc2ccc(-c3cccc4c3CCCC4)cc12 [Compound 73]	5 to 10 µM
Cc1nc(NC2CCN(Cc3ccc(Cl)cc3)CC2)nc2ccc(-c3ccnc(N4CCCCC4)c3F)cc12 [Compound 47]	< 5 µM
COc1c(Cl)cc(F)cc1-c1ccc2nc(NC3CCN(Cc4ccc(Cl)cc4)CC3)nc(C)c2c1 [Compound 20]	< 5 µM
Cc1nc(N[C@@H]2CC[C@H]3CC[C@@H](C2)N3C(=O)c2ccccc2Cl)nc2ccc(-c3cccc4c3CCCC4)cc12 [Compound 72]	5 to 10 µM
Cc1nc(NC2CCN(C(=O)c3cccc(Cl)c3)[C@H](C)C2)nc2ccc(-c3cccc4c3OCCO4)cc12 (some centres unmarked) [Compound 25]	5 to 10 µM
Cc1nc(NC2CCN(Cc3ccc(Cl)cc3)CC2)nc2ccc(-c3cccc4c3CCNC4)cc12 [Compound 4, N-(1-(4-chlorobenzyl)piperidin-4-yl)-4-methyl-6-(1,2,3,4-tetrahydroisoquinolin-5-yl)quinazolin-2-amine]	5 to 10 µM
Cc1nc(NC2CCN(Cc3ccc(Cl)cc3)CC2)nc2ccc(-c3cccc4c3C(=O)CCO4)cc12 [Compound 63]	< 5 µM
Cc1nc(N[C@@H]2CC[C@@H](Cc3ccc(Cl)cc3)NC2)nc2ccc(-c3cccc4c3CCCC4)cc12 [Compound 37]	5 to 10 µM
Cc1ncccc1-c1ccc2nc(N[C@H]3CC[C@@H](NC4Cc5cccc(Cl)c5C4)CC3)nc(C)c2c1 (some centres unmarked) [Compound 69]	5 to 10 µM
Cc1nc(NC2CCN(C(=O)c3ccc(Cl)cc3)CC2)nc2ccc(-c3cccc4c3CCCC4)cc12 [Compound 23]	< 5 µM
Cc1nc(NC2CCN(C(=O)c3ccccc3Cl)[C@H](C)C2)nc2ccc(-c3cccc4c3OCCO4)cc12 (some centres unmarked) [Compound 27]	< 5 µM

same assay, conditions: SW620 cell line (KRAS-G12V), 72 hours incubation, luminescence (CellTiter-Glo 2.0); read-out: 5W620 IC50

SMILES	IC50
Cc1nc(NC2CCN(C(=O)c3ccc(Cl)cc3)CC2)nc2ccc(-c3cccc4c3CCCC4)cc12 [Compound 35]	5 to 10 µM
